pIC50: −log10 of the molar value.
What was measured:
SW-620 [1] = assay: Reversal of resistance to paclitaxel-induced cytotoxicity in human SW-620/AD300 cells assessed as reduction in paclitaxel IC50 at 2 uM preincubated for 4 hrs followed by paclitaxel addition and measured after 72 hrs by MTT assay (reference value: 4.23 +/- 0.50 uM); assay type: functional, cell-based
SW-620 [2] = assay: Reversal of resistance to paclitaxel-induced cytotoxicity in human SW-620/AD300 cells assessed as reversal fold at 2 uM preincubated for 4 hrs followed by paclitaxel addition and measured after 72 hrs by MTT assay relative to paclitaxel; assay type: functional; details: time 76 hrs
SW-620 [3] = assay: Reversal of resistance to paclitaxel-induced cytotoxicity in human SW-620/AD300 cells assessed as reduction in paclitaxel IC50 at 5 uM preincubated for 4 hrs followed by paclitaxel addition and measured after 72 hrs by MTT assay (reference value: 4.23 +/- 0.50 uM); assay type: functional, cell-based
SW-620 [4] = assay: Reversal of resistance to paclitaxel-induced cytotoxicity in human SW-620/AD300 cells assessed as reversal fold at 5 uM preincubated for 4 hrs followed by paclitaxel addition and measured after 72 hrs by MTT assay relative to paclitaxel; assay type: functional; details: time 76 hrs
SW-620 [5] = assay: Reversal of resistance to paclitaxel-induced cytotoxicity in human SW-620/AD300 cells assessed as reduction in paclitaxel IC50 at 1 uM preincubated for 4 hrs followed by paclitaxel addition and measured after 72 hrs by MTT assay (reference value: 4.23 +/- 0.50 uM); assay type: functional, cell-based
SW-620 [6] = assay: Reversal of resistance to paclitaxel-induced cytotoxicity in human SW-620/AD300 cells assessed as reversal fold at 1 uM preincubated for 4 hrs followed by paclitaxel addition and measured after 72 hrs by MTT assay relative to paclitaxel; assay type: functional; details: time 76 hrs
SW-620 [7] = assay: Reversal of resistance to paclitaxel-induced cytotoxicity in human SW-620/AD300 cells assessed as reduction in paclitaxel IC50 at 6 uM preincubated for 4 hrs followed by paclitaxel addition and measured after 72 hrs by MTT assay (reference value: 4.23 +/- 0.50 uM); assay type: functional, cell-based
SW-620 [8] = assay: Reversal of resistance to paclitaxel-induced cytotoxicity in human SW-620/AD300 cells assessed as reversal fold at 6 uM preincubated for 4 hrs followed by paclitaxel addition and measured after 72 hrs by MTT assay relative to paclitaxel; assay type: functional; details: time 76 hrs
SW-620 [9] = assay: Reversal of resistance to paclitaxel-induced cytotoxicity in human SW-620/AD300 cells assessed as reduction in paclitaxel IC50 at 10 uM preincubated for 4 hrs followed by paclitaxel addition and measured after 72 hrs by MTT assay (reference value: 4.23 +/- 0.50 uM); assay type: functional, cell-based
SW-620 [10] = assay: Reversal of resistance to paclitaxel-induced cytotoxicity in human SW-620/AD300 cells assessed as reversal fold at 10 uM preincubated for 4 hrs followed by paclitaxel addition and measured after 72 hrs by MTT assay relative to paclitaxel; assay type: functional; details: time 76 hrs
SW-620 [11] = assay: Reversal of resistance to paclitaxel-induced cytotoxicity in human SW-620/AD300 cells assessed as reversal fold at 4 uM preincubated for 4 hrs followed by paclitaxel addition and measured after 72 hrs by MTT assay relative to paclitaxel; assay type: functional; details: time 76 hrs
SW-620 [12] = assay: cells; details: Homo sapiens
SW-620 [13] = assay: Reversal of resistance to paclitaxel-induced cytotoxicity in human SW-620/AD300 cells assessed as reduction in paclitaxel IC50 at 20 uM preincubated for 4 hrs followed by paclitaxel addition and measured after 72 hrs by MTT assay (reference value: 4.23 +/- 0.50 uM); assay type: functional, cell-based
SW-620 [14] = assay: Reversal of resistance to paclitaxel-induced cytotoxicity in human SW-620/AD300 cells assessed as reversal fold at 20 uM preincubated for 4 hrs followed by paclitaxel addition and measured after 72 hrs by MTT assay relative to paclitaxel; assay type: functional; details: time 76 hrs

## Cc1cc(Nc2ccc(C(=O)/C=C/c3ccc4ccccc4c3)cc2)n2nc(SC(=O)c3csc4ccc(Cl)cc34)nc2n1
SW-620 [1]
  pIC50: 7.46
SW-620 [2]
  fold change (FC): 120.86

## O[C@@H](COc1cccc2ncccc12)CN1CCN([C@@H]2c3ccccc3[C@@H]3[C@H](c4ccccc42)C3(F)F)CC1 [ZOSUQUIDAR]
SW-620 [1]
  pIC50: 7.23
SW-620 [2]
  fold change (FC): 71.1

## Cc1cc(Nc2ccc(C(=O)/C=C/c3ccc4ccccc4c3)cc2)n2nc(SCc3cccc(C(F)(F)F)c3)nc2n1
SW-620 [3]
  pIC50: 5.68
SW-620 [4]
  fold change (FC): 2.04

## COc1ccc(/C=C/C(=O)c2ccc(Nc3cc(C)nc4nc(SCc5nc6ccccc6[nH]5)nn34)cc2)cc1F
SW-620 [1]
  pIC50: 6.85
SW-620 [2]
  fold change (FC): 30.21

## Cc1cc(Nc2ccc(C(=O)/C=C/c3ccc(OC(F)(F)F)c(OC(F)(F)F)c3)cc2)n2nc(SCc3nc4ccccc4[nH]3)nc2n1
SW-620 [5]
  pIC50: 6.92
SW-620 [6]
  fold change (FC): 35.25

## Cc1cc(Nc2ccc(C(=O)/C=C/c3ccc4ccccc4c3)cc2)n2nc(SCCc3ccccc3)nc2n1
SW-620 [7]
  pIC50: 6.17
SW-620 [8]
  fold change (FC): 6.31

## O=C(/C=C/c1ccc2ccccc2c1)c1ccc(Nc2cc(-c3ccccc3)nc3ncnn23)cc1
SW-620 [9]
  pIC50: 6.10
SW-620 [10]
  fold change (FC): 5.35

## Cc1cc(Nc2ccc(C(=O)/C=C/c3ccccc3Cl)cc2)n2nc(SCc3nc4ccccc4[nH]3)nc2n1
SW-620 [1]
  pIC50: 6.17
SW-620 [2]
  fold change (FC): 6.22

## Cc1cc(Nc2ccc(C(=O)/C=C/c3ccc4ccccc4c3)cc2)n2nc(SCc3ccc([N+](=O)[O-])cc3)nc2n1
SW-620 [3]
  pIC50: 5.95
SW-620 [4]
  fold change (FC): 3.74

## Cc1cc(Nc2ccc(C(=O)/C=C/c3ccc4ccccc4c3)cc2)n2nc(SCc3cccc([N+](=O)[O-])c3)nc2n1
SW-620 [3]
  pIC50: 6.10
SW-620 [4]
  fold change (FC): 5.35

## Cc1ccc(/C=C/C(=O)c2ccc(Nc3cc(C)nc4nc(SCc5nc6ccccc6[nH]5)nn34)cc2)cc1
SW-620 [1]
  pIC50: 5.82
SW-620 [2]
  fold change (FC): 2.78

## Cc1cc(Nc2ccc(C(=O)/C=C/c3ccc4ccccc4c3)cc2)n2nc(SCc3ccccc3[N+](=O)[O-])nc2n1
SW-620 [3]
  pIC50: 6.02
SW-620 [4]
  fold change (FC): 4.36

## Cc1cc(Nc2ccc(C(=O)/C=C/c3ccc4ccccc4c3)cc2)n2nc(SCc3cccc4ccccc34)nc2n1
SW-620 [1]
  pIC50: 7.17
SW-620 [2]
  fold change (FC): 62.21

## Cc1cc(Nc2ccc(C(=O)/C=C/c3ccc4ccccc4c3)cc2)n2ncnc2n1
SW-620 [9]
  pIC50: 6.14
SW-620 [10]
  fold change (FC): 5.79

## Cc1cc(Nc2ccc(C(=O)/C=C/c3ccc4ccccc4c3)cc2)n2nc(SCc3c(Cl)cccc3Cl)nc2n1
SW-620 [11]
  fold change (FC): 6.13
SW-620 [12]
  pIC50: 6.16

## Cc1cc(Nc2ccc(C(=O)/C=C/c3ccc4ccccc4c3)cc2)n2nc(SCc3ccc(F)cc3)nc2n1
SW-620 [3]
  pIC50: 6.49
SW-620 [4]
  fold change (FC): 13.22

## C=CCSc1nc2nc(C)cc(Nc3ccc(C(=O)/C=C/c4ccc5ccccc5c4)cc3)n2n1
SW-620 [9]
  pIC50: 6.04
SW-620 [10]
  fold change (FC): 4.6

## Cc1cc(Nc2ccc(C(=O)/C=C/c3cccc(Br)n3)cc2)n2nc(SCc3nc4ccccc4[nH]3)nc2n1
SW-620 [5]
  pIC50: 7.24
SW-620 [6]
  fold change (FC): 72.93

## Cc1cc(Nc2ccc(C(=O)/C=C/c3ccc4ccccc4c3)cc2)n2nc(SCc3ccccc3)nc2n1
SW-620 [3]
  pIC50: 6.52
SW-620 [4]
  fold change (FC): 14.1

## COc1ccc(/C=C/C(=O)c2ccc(Nc3cc(C)nc4nc(SCc5nc6ccccc6[nH]5)nn34)cc2)cc1
SW-620 [1]
  pIC50: 6.77
SW-620 [2]
  fold change (FC): 24.88

## CC(=O)c1ccc(Nc2cc(C)nc3nc(SCc4nc5ccccc5[nH]4)nn23)cc1
SW-620 [13]
  pIC50: 5.79
SW-620 [14]
  fold change (FC): 2.6

## Cc1cc(Nc2ccc(C(=O)/C=C/c3cccs3)cc2)n2nc(SCc3nc4ccccc4[nH]3)nc2n1
SW-620 [1]
  pIC50: 6.09
SW-620 [2]
  fold change (FC): 5.15

## Cc1cc(Nc2ccc(C(=O)/C=C/c3ccc(Cl)cc3)cc2)n2nc(SCc3nc4ccccc4[nH]3)nc2n1
SW-620 [1]
  pIC50: 6.64
SW-620 [2]
  fold change (FC): 18.39

## Cc1cc(Nc2ccc(C(=O)/C=C/c3ccccc3)cc2)n2nc(SCc3nc4ccccc4[nH]3)nc2n1
SW-620 [1]
  pIC50: 6.89
SW-620 [2]
  fold change (FC): 32.54
